Reference: ChEMBL document CHEMBL1144976, “Biological activities of alpha-mangostin derivatives against acidic sphingomyelinase” (Bioorg Med Chem Lett, 2003)

Tests used:
[1] = target: T1, Sphingomyelin phosphodiesterase (Homo sapiens, UniProt P17405); experiment: Inhibitory activity against Acid sphingomyelinase
T1 sequence (P17405 whole entry): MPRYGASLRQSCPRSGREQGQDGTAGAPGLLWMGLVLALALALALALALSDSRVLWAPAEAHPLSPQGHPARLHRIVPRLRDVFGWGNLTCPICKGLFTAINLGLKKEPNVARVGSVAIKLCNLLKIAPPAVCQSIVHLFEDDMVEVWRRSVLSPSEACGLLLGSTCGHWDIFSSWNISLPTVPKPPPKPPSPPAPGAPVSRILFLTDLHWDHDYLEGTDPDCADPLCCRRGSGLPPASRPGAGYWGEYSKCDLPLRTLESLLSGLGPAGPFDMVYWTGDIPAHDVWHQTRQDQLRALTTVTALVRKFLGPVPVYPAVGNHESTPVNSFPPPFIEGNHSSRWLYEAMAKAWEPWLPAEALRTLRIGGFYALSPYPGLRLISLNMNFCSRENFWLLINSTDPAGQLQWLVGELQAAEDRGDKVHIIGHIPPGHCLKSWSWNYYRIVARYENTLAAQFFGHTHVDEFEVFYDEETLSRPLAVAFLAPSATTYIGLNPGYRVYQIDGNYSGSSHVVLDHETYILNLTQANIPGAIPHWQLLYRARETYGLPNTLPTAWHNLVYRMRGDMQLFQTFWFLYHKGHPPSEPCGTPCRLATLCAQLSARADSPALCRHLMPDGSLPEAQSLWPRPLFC

[2] = target: T2, Sphingomyelin phosphodiesterase 2 (Homo sapiens, UniProt O60906); experiment: Inhibitory activity against NSMase (neutral sphingomyelinase)
T2 sequence (O60906 whole entry): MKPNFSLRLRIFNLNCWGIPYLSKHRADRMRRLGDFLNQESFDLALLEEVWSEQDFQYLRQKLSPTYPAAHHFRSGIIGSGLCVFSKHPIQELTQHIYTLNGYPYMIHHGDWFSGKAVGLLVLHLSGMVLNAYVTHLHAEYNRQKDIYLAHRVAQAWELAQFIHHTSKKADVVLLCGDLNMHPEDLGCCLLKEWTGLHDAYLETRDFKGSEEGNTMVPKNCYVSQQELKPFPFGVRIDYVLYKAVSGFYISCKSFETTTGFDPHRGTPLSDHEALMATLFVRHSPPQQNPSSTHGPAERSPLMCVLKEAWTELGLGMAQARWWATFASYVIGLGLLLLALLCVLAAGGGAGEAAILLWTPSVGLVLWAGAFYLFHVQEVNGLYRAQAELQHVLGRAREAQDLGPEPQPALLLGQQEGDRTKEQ

| Structure (SMILES) | IC50 [1] | IC50 [2] |
| --- | --- | --- |
| COc1cc(C(=O)c2c(O)cc(O)c(CC=C(C)C)c2O)c(O)cc1O | 66.6 µM | 201 µM |
| COc1c(O)cc(O)c(C(=O)c2c(O)cc(O)cc2O)c1CC=C(C)C | 14.7 µM | 28.3 µM |
| COc1c(O)cc2oc3cc(O)c(CC=C(C)C)c(O)c3c(=O)c2c1CC=C(C)C [MANGOSTIN] | 12.5 µM | 113 µM |
| COc1c(O)cc2oc3cc(O)cc(O)c3c(=O)c2c1CC=C(C)C | 15.3 µM | 26 µM |
| COc1cc2c(=O)c3c(O)c(CC=C(C)C)c(O)cc3oc2cc1O | 101 µM | > 292 µM |
| COc1c(O)cc(O)c(C(=O)c2c(O)cc(O)c(CC=C(C)C)c2O)c1CC=C(C)C | 38.5 µM | 113 µM |
